We go through eight compounds from patent US10251892B2, “Bicyclic heterocycles as FGFR4 inhibitors” (Incyte Corporation, priority 2015, dated 2019).

Assay [1] addresses FGFR4 (Homo sapiens (Human), UniProt P22455). Description: FGFR Enzymatic Assay (peptide phosphorylation, FRET), FGFR4. It is filed as biochemical. Here is the method:
(§1) The inhibitor potency of the exemplified compounds was measured in an enzyme assay that measures peptide phosphorylation using FRET measurements to detect product formation. Inhibitors were serially diluted in DMSO and a volume of 0.5 μL was transferred to the wells of a 384-well plate.
The enzymes were purchased from Millipore or Invitrogen.
(§2) GraphPad prism3 was used to analyze the data.

The target in assay [2] is FGFR3 enzyme (Homo sapiens (Human), UniProt P22607). Description: FGFR Enzymatic Assay (peptide phosphorylation, FRET), FGFR3. The note with it: IC50 ratio showing FGFR3 selectivity; pre-incubated for 4 hours. The assay is classed as biochemical. How it is done:
as §1, §2

Where [3] appears, read: IC50 ratio showing FGFR4 selectivity, pre-incubated for 4 hours.
The mark [4] stands for this setting: ratio of IC50 data showing FGFR4 selectivity, pre-incubated for 5 to 10 minutes.

Sequence of FGFR4 (P22455 22-802): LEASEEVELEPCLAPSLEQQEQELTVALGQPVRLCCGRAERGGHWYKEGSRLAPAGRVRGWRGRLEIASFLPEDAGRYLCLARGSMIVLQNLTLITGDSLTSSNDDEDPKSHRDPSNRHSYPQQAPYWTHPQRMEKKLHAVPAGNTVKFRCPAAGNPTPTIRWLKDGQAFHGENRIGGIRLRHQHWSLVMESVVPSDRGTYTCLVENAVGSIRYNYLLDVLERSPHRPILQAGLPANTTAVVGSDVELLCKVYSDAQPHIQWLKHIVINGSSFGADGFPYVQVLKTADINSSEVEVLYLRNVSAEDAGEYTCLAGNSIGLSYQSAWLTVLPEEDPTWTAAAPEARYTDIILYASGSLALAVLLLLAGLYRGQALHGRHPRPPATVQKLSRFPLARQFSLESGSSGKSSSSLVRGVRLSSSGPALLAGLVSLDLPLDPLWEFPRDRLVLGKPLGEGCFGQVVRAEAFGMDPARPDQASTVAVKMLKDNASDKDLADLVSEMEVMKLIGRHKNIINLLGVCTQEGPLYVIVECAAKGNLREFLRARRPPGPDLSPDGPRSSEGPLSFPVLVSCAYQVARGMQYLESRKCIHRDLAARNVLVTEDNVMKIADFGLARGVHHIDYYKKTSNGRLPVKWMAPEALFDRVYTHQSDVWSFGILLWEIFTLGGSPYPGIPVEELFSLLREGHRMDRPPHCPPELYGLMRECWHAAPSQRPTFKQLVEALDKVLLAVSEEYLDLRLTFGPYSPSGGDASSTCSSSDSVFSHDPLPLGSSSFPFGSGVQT
Sequence of FGFR3 enzyme (P22607 23-806): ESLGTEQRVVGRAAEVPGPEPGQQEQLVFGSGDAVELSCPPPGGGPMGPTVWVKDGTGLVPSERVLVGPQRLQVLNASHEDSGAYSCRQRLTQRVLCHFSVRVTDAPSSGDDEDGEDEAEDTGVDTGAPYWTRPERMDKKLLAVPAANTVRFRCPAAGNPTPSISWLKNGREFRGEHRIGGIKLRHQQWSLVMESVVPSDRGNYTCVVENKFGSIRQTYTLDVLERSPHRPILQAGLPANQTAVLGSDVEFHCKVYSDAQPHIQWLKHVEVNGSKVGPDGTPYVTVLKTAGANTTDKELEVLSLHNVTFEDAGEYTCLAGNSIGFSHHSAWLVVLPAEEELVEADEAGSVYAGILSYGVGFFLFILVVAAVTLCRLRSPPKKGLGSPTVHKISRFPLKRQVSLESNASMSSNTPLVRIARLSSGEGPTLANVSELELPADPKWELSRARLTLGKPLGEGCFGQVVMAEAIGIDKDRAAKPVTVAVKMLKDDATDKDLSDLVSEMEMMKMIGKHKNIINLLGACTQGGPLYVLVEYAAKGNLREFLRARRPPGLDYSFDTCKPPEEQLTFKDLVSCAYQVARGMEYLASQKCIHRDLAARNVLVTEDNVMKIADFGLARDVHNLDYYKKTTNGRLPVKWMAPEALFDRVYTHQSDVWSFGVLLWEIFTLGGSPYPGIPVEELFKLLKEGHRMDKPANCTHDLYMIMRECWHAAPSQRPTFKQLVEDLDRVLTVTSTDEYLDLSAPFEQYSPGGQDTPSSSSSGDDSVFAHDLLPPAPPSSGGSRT

For the compound `COc1cc(OC)c(F)c(N2Cc3cnc(-c4nn(CC5CCOCC5)cc4C#N)cc3C3(CC3)C2=O)c1F` [Example 173, 3-(2′-(2,6-difluoro-3,5-dimethoxyphenyl)-3′-oxo-2′,3′-dihydro-1′H-spiro[cyclopropane-1,4′-[2,7]naphthyridine]-6′-yl)-1-((tetrahydro-2H-pyran-4-yl)methyl)-1H-pyrazole-4-carbonitrile], in assay [1] (setting [3]), the FGFR1/FGFR4 is recorded as >100, the FGFR2/FGFR4 is >100 and the FGFR3/FGFR4 is given as >50.

In the case of `COc1cc(OC)c(F)c(N2Cc3cnc(-c4cc(N)c(F)cc4C)cc3C3(CC3)C2=O)c1F` [Example 2, 6′-(5-amino-4-fluoro-2-methylphenyl)-2′-(2,6-difluoro-3,5-dimethoxyphenyl)-1′H-spiro[cyclopropane-1,4′-[2,7]naphthyridin]-3′(2′H)-one], in assay [1] (setting [3]), the FGFR1/FGFR4 is given as >10, the FGFR2/FGFR4 was >10 and the FGFR3/FGFR4 is on record as >10. Besides, in assay [1] (setting [4]), the FGFR1/FGFR4 is reported as >10, the FGFR2/FGFR4 was >10 and the FGFR3/FGFR4 is >10.

Consider `COc1cc(OC)c(F)c(N2Cc3cnc(-c4cc(N)ccc4C#N)cc3C3(CC3)C2=O)c1F` [Example 3, 4-amino-2-(2′-(2,6-difluoro-3,5-dimethoxyphenyl)-3′-oxo-2′,3′-dihydro-1′H-spiro[cyclopropane-1,4′-[2,7]naphthyridine]-6′-yl)benzonitrile], for which, in assay [1] (setting [3]), the FGFR1/FGFR4 was >25, the FGFR2/FGFR4 is given as >25 and the FGFR3/FGFR4 is >10. In assay [1] (setting [4]), the FGFR1/FGFR4 was >25, the FGFR2/FGFR4 is reported as >25 and the FGFR3/FGFR4 is reported as >25.

As to `COc1cc(OC)c(F)c(N2Cc3cnc(-c4[nH]ncc4C#N)cc3C3(CC3)C2=O)c1F` [Example 171, 5-(2′-(2,6-difluoro-3,5-dimethoxyphenyl)-3′-oxo-2′,3′-dihydro-1′H-spiro[cyclopropane-1,4′-[2,7]naphthyridine]-6′-yl)-1H-pyrazole-4-carbonitrile], in assay [1] (setting [3]), the FGFR1/FGFR4 was >10, the FGFR2/FGFR4 is on record as >10 and the FGFR3/FGFR4 was >10.

Consider `CCc1cnc(N2C(=O)N(c3c(F)c(OC)cc(OC)c3F)Cc3cnc(-c4cn(C)nc4C)cc32)cn1` [Example 106, 3-(2,6-difluoro-3,5-dimethoxyphenyl)-7-(1,3-dimethyl-1H-pyrazol-4-yl)-1-(5-ethylpyrazin-2-yl)-3,4-dihydropyrido[4,3-d]pyrimidin-2(1H)-one], for which, in assay [2], the FGFR1/FGFR3 is >3 and the FGFR4/FGFR3 was >5.

For the compound `COc1cc(OC)c(F)c(N2Cc3cnc(-c4cn(C)nc4C)cc3N(Cc3cnn(C4CC4)c3)C2=O)c1F` [Example 124, 1-((1-cyclopropyl-1H-pyrazol-4-yl)methyl)-3-(2,6-difluoro-3,5-dimethoxyphenyl)-7-(1,3-dimethyl-1H-pyrazol-4-yl)-3,4-dihydropyrido[4,3-d]pyrimidin-2(1H)-one], in assay [2], the FGFR1/FGFR3 is >10 and the FGFR4/FGFR3 is on record as >10.

As to `COc1cc(OC)c(F)c(N2Cc3cnc(-c4cn(C)nc4C)cc3N(Cc3ccccn3)C2=O)c1F` [Example 94, 3-(2,6-difluoro-3,5-dimethoxyphenyl)-7-(1,3-dimethyl-1H-pyrazol-4-yl)-1-(pyridin-2-ylmethyl)-3,4-dihydropyrido[4,3-d]pyrimidin-2(1H)-one], in assay [2], the FGFR1/FGFR3 is on record as >5 and the FGFR4/FGFR3 is >10.

For `COc1cc(OC)c(F)c(N2Cc3cnc(-c4cn(C)nc4C)cc3N(Cc3cc(C)on3)C2=O)c1F` [Example 31, 3-(2,6-difluoro-3,5-dimethoxyphenyl)-7-(1,3-dimethyl-1H-pyrazol-4-yl)-1-((5-methylisoxazol-3-yl)methyl)-3,4-dihydropyrido[4,3-d]pyrimidin-2(1H)-one], in assay [2], the FGFR1/FGFR3 is reported as >5 and the FGFR4/FGFR3 is given as >10.
